Test results reported in article PMC9118553, “In Vivo Bioconcentration of 10 Anionic Surfactants in Rainbow Trout Explained by In Vitro Data on Partitioning and S9 Clearance” (Environmental Science & Technology, 2022).
“And” between values parts separate entries of the source, which are not always exact repeats. Identical values can stand only once. Like-named read-outs stand apart in the source and are kept apart here.

Columns and labels:
[1] = In vivo bioconcentration experiment with a mixture of anionic surfactants, flow-through aquaria, 10 °C, pH 7.8; parameters: species or system rainbow trout; details: rainbow trout, whole fish homogenate, other: waterborne exposure in flow-through aquaria; for k el: read-out: Elimination rate constant kT (converted)
Method in brief: (§1)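 Juvenile rainbow trout exposed to a 10-surfactant mixture for 4 days, then 7-day depuration, in flow-through aquaria at 10 °C, pH 7.8. Whole-fish homogenates and water analysed by LC-MS/MS against BEHP internal standard. kU, kT and BCF (=kU/kT) estimated by joint Bayesian model including water-concentration uncertainty.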

[2] = tested on: rainbow trout; assay: as above; details: for Concentration in fish: individual fish
Method in brief: as §1

[3] = tested on: rainbow trout; details: rainbow trout carcass; cited from earlier work
[4] = parameters: method as in REACH dossier; details: method as noted in the cell (shake flask, solubility ratio, HPLC, BCFBAF, pH); ref REACH dossier; cited from earlier work
[5] = ref REACH dossier; cited from earlier work
[6] = determined using nominal concentrations in water
[7] = measured concentrations in water, simpler estimation method (Text S3), 95% confidence intervals in brackets

In the case of CCCCC(CC)COC(=O)CC(C(=O)OCC(CC)CCCC)S(=O)(=O)O (stereo not shown) [DOSS, bis(2-ethylhexyl)sulfosuccinate], the k el ([1]; 26 μg L^–1, pH 7.8, determined using nominal concentrations in water) is reported as 1.56e-05 s⁻¹, the concentration at 97 h ([1]; 26 μg L^–1, pH 7.8, elimination phase, 97 h, individual fish) is reported as 57 ng/g and the concentration at 98 h ([1]; 26 μg L^–1, pH 7.8, elimination phase, 98 h, individual fish) is reported as 47 ng/g. For the same molecule, the concentration at 103 h ([1]; 26 μg L^–1, pH 7.8, elimination phase, 103 h, individual fish) was 35 ng/g, the concentration at 128 h ([1]; 26 μg L^–1, pH 7.8, elimination phase, 128 h, individual fish) was 13.9 ng/g and the concentration at 2 h ([1]; 26 μg L^–1, pH 7.8, exposure phase, 2 h, individual fish) was 8.5 ng/g. The concentration at 3 h ([1]; 26 μg L^–1, pH 7.8, exposure phase, 3 h, individual fish) was 14.9 ng/g, the concentration at 6 h ([1]; 26 μg L^–1, pH 7.8, exposure phase, 6 h, individual fish) was 36 ng/g and the concentration at 24 h ([1]; 26 μg L^–1, pH 7.8, exposure phase, 24 h, individual fish) was 66 ng/g. For the same molecule, the concentration at 48 h ([1]; 26 μg L^–1, pH 7.8, exposure phase, 48 h, individual fish) was 48 ng/g, the concentration at 72 h ([1]; 26 μg L^–1, pH 7.8, exposure phase, 72 h, individual fish) was 50 ng/g and the concentration at 96 h ([1]; 26 μg L^–1, pH 7.8, exposure phase, 96 h, individual fish) was 84 ng/g. The k el ([1]; 26 μg L^–1, pH 7.8, from measured concentrations in water, Bayesian estimate, 95% credible interval in brackets) was 1.75e-05 s⁻¹, the k el ([1]; pH 7.8, measured concentrations in water, simpler estimation method (Text S3), 95% confidence intervals in brackets) was 1.78e-05 s⁻¹ and the “Uptake rate constant kU” value [2] was 0.090 L kg^–1 h^–1. The BCF [2, 6] was 3.0 L kg-1 ww, the “Uptake rate constant kU” value [2, 6] was 0.169 L/kg/h and the “Log BCF” value ([2]; determined with measured concentrations in water) was 0.15 L kg-1 ww. For the same molecule, the Concentration in fish ([2]; elimination phase, 97 h) was 69 ng g-1 ww and 70 ng g-1 ww, the Concentration in fish ([2]; elimination phase, 98 h) was 25 ng g-1 ww and 34 ng g-1 ww and the Concentration in fish ([2]; elimination phase, 100 h) was 92 ng g-1 ww and 49 ng g-1 ww and 45 ng g-1 ww. The Concentration in fish ([2]; elimination phase, 103 h) was 35 ng g-1 ww and 33 ng g-1 ww, the Concentration in fish ([2]; elimination phase, 120 h) was 14.2 ng g-1 ww and 36 ng g-1 ww and 13.5 ng g-1 ww and the Concentration in fish ([2]; elimination phase, 128 h) was 15.7 ng g-1 ww and 17.8 ng g-1 ww. The Concentration in fish ([2]; elimination phase, 144 h) was 4.1 ng g-1 ww and 6.4 ng g-1 ww and 24 ng g-1 ww, the Concentration in fish ([2]; elimination phase, 168 h) was 2.3 ng g-1 ww and 7.9 ng g-1 ww and 3.0 ng g-1 ww and the Concentration in fish ([2]; elimination phase, 192 h) was 0.75 ng g-1 ww and 4.2 ng g-1 ww and 0.92 ng g-1 ww. For the same molecule, the Concentration in fish ([2]; elimination phase, 264 h) was 4.5 ng g-1 ww and 2.9 ng g-1 ww and 0.40 ng g-1 ww, the Concentration in fish ([2]; exposure phase, 1 h) was 10.9 ng g-1 ww and 5.8 ng g-1 ww and 17.8 ng g-1 ww and the Concentration in fish ([2]; exposure phase, 2 h) was 11.0 ng g-1 ww and 7.5 ng g-1 ww. For the same molecule, the Concentration in fish ([2]; exposure phase, 3 h) was 17.4 ng g-1 ww and 15.2 ng g-1 ww, the Concentration in fish ([2]; exposure phase, 4 h) was 21 ng g-1 ww and 42 ng g-1 ww and 106 ng g-1 ww and the Concentration in fish ([2]; exposure phase, 6 h) was 32 ng g-1 ww and 25 ng g-1 ww. The Concentration in fish ([2]; exposure phase, 24 h) was 59 ng g-1 ww and 41 ng g-1 ww, the Concentration in fish ([2]; exposure phase, 48 h) was 66 ng g-1 ww and 56 ng g-1 ww and the Concentration in fish ([2]; exposure phase, 72 h) was 59 ng g-1 ww and 78 ng g-1 ww. For the same molecule, the Concentration in fish ([2]; exposure phase, 96 h) was 62 ng g-1 ww and 67 ng g-1 ww, the “Uptake rate constant kU” value ([2]; from measured concentrations in water, Bayesian estimate, 95% credible interval in brackets) was 0.090 (0.074–0.110) L kg^–1 ww h^–1 and the “BCF (kinetic)” value ([2]; kinetic BCF from measured concentrations in water, 95% credible interval in brackets) was 1.42 (1.22–1.66) L kg^–1 ww. The BCF [2, 7] was 1.37 (14) L kg-1 ww, the “Uptake rate constant kU” value [2, 7] was 0.088 (9) L kg-1 ww h-1 and the BCF ([2]; own values) was 1.42 L kg^–1. For the same molecule, the “diffusion coefficient (D) in the epithelial membrane of the gills” value ([2]; solved from eq 3 with kU, DMLW, gill area, fish 0.024 kg, membrane density 1 kg L^–1) was 9.3 × 10^–9 m h^–1, the BCF [3] was 3.78 L kg^–1 and the LogKow [4] was 2. For the same molecule, the “Degradation information ~28d-sludge test (% degradable)” value [5] was 91.2-100%.
